Publication PMC8571282 (Nature Communications, 2021)
Values joined by “and” are separate entries in the source; they are usually repeats but may differ in a detail not shown here. Equal entries are not always repeated. Where two headings read alike, the source gives them in different places.

Columns and labels:
SARS-CoV-2 WA1/2020 [1] = format: in vivo, ferret (Mustela putorius furo); conditions: for Transform of Nasal lavage titer, Mean 2 (treated group) / Transform of Nasal lavage titer, Mean Diff. (Vehicle vs. treated): Fig 3b; for Transform of Nasal Lavage RNA copies, Mean 2 (treated group) / Transform of Nasal Lavage RNA copies, Mean Diff. (Vehicle vs. treated): Fig 3f, 5mg/kg b.i.d.
[2] = format: in vivo, ferret (Mustela putorius furo); set-up: Temperature, Mean Diff. (Vehicle - treated): unit not given here; conditions: for Bodyweight, Mean 2 (treated group) / Bodyweight, Mean Diff. (Vehicle vs. treated): Fig 3e; for Bodyweight, Mean 2 (treated group) / Bodyweight, Mean Diff. (Vehicle vs. treated) / Temperature, Mean 2 (treated group) / Temperature, Mean Diff. (Vehicle vs. treated): 5 mg/kg, b.i.d.; for Temperature, Mean 2 (treated group) / Temperature, Mean Diff. (Vehicle vs. treated): Fig 3d; for Bodyweight, Mean 2 (treated group mean) / Bodyweight, Mean Diff. (Vehicle - treated): Fig 2e; for Bodyweight, Mean 2 (treated group mean) / Bodyweight, Mean Diff. (Vehicle - treated) / Temperature, Mean 2 (treated group mean) / Temperature, Mean Diff. (Vehicle - treated): 20 mg kg-1 b.i.d.; for Bodyweight, Mean 2 (treated group mean) / Temperature, Mean 2 (treated group mean): N 4; for Bodyweight, Mean Diff. (Vehicle - treated) / Temperature, Mean Diff. (Vehicle - treated): Šídák's multiple comparisons test; for Temperature, Mean 2 (treated group mean) / Temperature, Mean Diff. (Vehicle - treated): Fig 2d
SARS-CoV-2 WA1/2020 [3] = format: in vivo, ferret (Mustela putorius furo); conditions: Fig 2g, 20 mg kg-1 b.i.d.; for Transform of Nasal lavage RNA copies/uL, Mean 2 (treated group mean): N 4; for Transform of Nasal lavage RNA copies/uL, Mean Diff. (Vehicle - treated): Šídák's multiple comparisons test
[4] = Single-dose plasma pharmacokinetics in ferrets; conditions: ferret plasma, analyte 441524 after IV '524, 20 mg/kg, 20 mg/kg; for AUC(0-t) / clearance / Cmax: plasma, iv; for AUC(0-t): AUClast; for clearance: Cl_obs

CC(C)C(=O)OC[C@H]1O[C@@H](n2ccc(NO)nc2=O)[C@H](O)[C@@H]1O [EIDD-2801/molnupiravir, reference compound]
Transform of Nasal lavage titer, Mean 2 (treated group) (SARS-CoV-2 WA1/2020 [1]; Day 0, 5 mg/kg, b.i.d.): 0.699 | Transform of Nasal lavage titer, Mean Diff. (Vehicle vs. treated) (SARS-CoV-2 WA1/2020 [1]; Day 0, 5 mg/kg, b.i.d.): 0 | Transform of Nasal lavage titer, Mean 2 (treated group) (SARS-CoV-2 WA1/2020 [1]; Day 0.5, 5 mg/kg, b.i.d.): 2.389 | Transform of Nasal lavage titer, Mean Diff. (Vehicle vs. treated) (SARS-CoV-2 WA1/2020 [1]; Day 0.5, 5 mg/kg, b.i.d.): 0.206 | Transform of Nasal lavage titer, Mean 2 (treated group) (SARS-CoV-2 WA1/2020 [1]; Day 1, 5 mg/kg, b.i.d.): 2.25 | Transform of Nasal lavage titer, Mean Diff. (Vehicle vs. treated) (SARS-CoV-2 WA1/2020 [1]; Day 1, 5 mg/kg, b.i.d.): 1.457 | Transform of Nasal lavage titer, Mean 2 (treated group) (SARS-CoV-2 WA1/2020 [1]; Day 1.5, 5 mg/kg, b.i.d.): 2.025 | Transform of Nasal lavage titer, Mean Diff. (Vehicle vs. treated) (SARS-CoV-2 WA1/2020 [1]; Day 1.5, 5 mg/kg, b.i.d.): 2.631 | Transform of Nasal lavage titer, Mean 2 (treated group) (SARS-CoV-2 WA1/2020 [1]; Day 2, 5 mg/kg, b.i.d.): 1.683 | Transform of Nasal lavage titer, Mean Diff. (Vehicle vs. treated) (SARS-CoV-2 WA1/2020 [1]; Day 2, 5 mg/kg, b.i.d.): 2.587 | Transform of Nasal lavage titer, Mean 2 (treated group) (SARS-CoV-2 WA1/2020 [1]; Day 2.5, 5 mg/kg, b.i.d.): 2.004 | Transform of Nasal lavage titer, Mean Diff. (Vehicle vs. treated) (SARS-CoV-2 WA1/2020 [1]; Day 2.5, 5 mg/kg, b.i.d.): 2.196 | Transform of Nasal lavage titer, Mean 2 (treated group) (SARS-CoV-2 WA1/2020 [1]; Day 3, 5 mg/kg, b.i.d.): 1.551 | Transform of Nasal lavage titer, Mean Diff. (Vehicle vs. treated) (SARS-CoV-2 WA1/2020 [1]; Day 3, 5 mg/kg, b.i.d.): 2.25 | Transform of Nasal lavage titer, Mean 2 (treated group) (SARS-CoV-2 WA1/2020 [1]; Day 3.5, 5 mg/kg, b.i.d.): 1.802 | Transform of Nasal lavage titer, Mean Diff. (Vehicle vs. treated) (SARS-CoV-2 WA1/2020 [1]; Day 3.5, 5 mg/kg, b.i.d.): 2.074 | Transform of Nasal lavage titer, Mean 2 (treated group) (SARS-CoV-2 WA1/2020 [1]; Day 4, 5 mg/kg, b.i.d.): 1.119 | Transform of Nasal lavage titer, Mean Diff. (Vehicle vs. treated) (SARS-CoV-2 WA1/2020 [1]; Day 4, 5 mg/kg, b.i.d.): 2.869 | Transform of Nasal Turbinate titer, Mean 2 (treated group) (SARS-CoV-2 WA1/2020 [1]; Fig 3c, 5 mg/kg, b.i.d.): 2.801 | Transform of Nasal Turbinate titer, Mean Diff. (Vehicle vs. treated) (SARS-CoV-2 WA1/2020 [1]; Fig 3c, 5 mg/kg, b.i.d.): 3.122 | Transform of Nasal Lavage RNA copies, Mean 2 (treated group) (SARS-CoV-2 WA1/2020 [1]; Row 1 (time)): 0 | Transform of Nasal Lavage RNA copies, Mean Diff. (Vehicle vs. treated) (SARS-CoV-2 WA1/2020 [1]; Row 1 (time)): 0 | Transform of Nasal Lavage RNA copies, Mean 2 (treated group) (SARS-CoV-2 WA1/2020 [1]; Row 2 (time)): 4.936 | Transform of Nasal Lavage RNA copies, Mean Diff. (Vehicle vs. treated) (SARS-CoV-2 WA1/2020 [1]; Row 2 (time)): 0.6755 | Transform of Nasal Lavage RNA copies, Mean 2 (treated group) (SARS-CoV-2 WA1/2020 [1]; Row 3 (time)): 4.762 | Transform of Nasal Lavage RNA copies, Mean Diff. (Vehicle vs. treated) (SARS-CoV-2 WA1/2020 [1]; Row 3 (time)): 1.379 | Transform of Nasal Lavage RNA copies, Mean 2 (treated group) (SARS-CoV-2 WA1/2020 [1]; Row 4 (time)): 4.913 | Transform of Nasal Lavage RNA copies, Mean Diff. (Vehicle vs. treated) (SARS-CoV-2 WA1/2020 [1]; Row 4 (time)): 0.7124 | Transform of Nasal Lavage RNA copies, Mean 2 (treated group) (SARS-CoV-2 WA1/2020 [1]; Row 5 (time)): 4.419 | Transform of Nasal Lavage RNA copies, Mean Diff. (Vehicle vs. treated) (SARS-CoV-2 WA1/2020 [1]; Row 5 (time)): 1.314 | viral RNA copies in nasal lavages and turbinates vs vehicle (SARS-CoV-2 WA1/2020 [1]; in vivo): statistically significant mean reduction | virus burden in the turbinates (SARS-CoV-2 WA1/2020 [1]; in vivo): approached the limit of detection | virus shedding in nasal lavages (SARS-CoV-2 WA1/2020 [1]; in vivo): near-detection level | Bodyweight, Mean 2 (treated group) ([2]; Row 1 (time)): 100 | Bodyweight, Mean Diff. (Vehicle vs. treated) ([2]; Row 1 (time)): 0 | Bodyweight, Mean 2 (treated group) ([2]; Row 2 (time)): 104 | Bodyweight, Mean Diff. (Vehicle vs. treated) ([2]; Row 2 (time)): -3.257 | Bodyweight, Mean 2 (treated group) ([2]; Row 3 (time)): 103.5 | Bodyweight, Mean Diff. (Vehicle vs. treated) ([2]; Row 3 (time)): -2.179 | Bodyweight, Mean 2 (treated group) ([2]; Row 4 (time)): 103.9 | Bodyweight, Mean Diff. (Vehicle vs. treated) ([2]; Row 4 (time)): -1.728 | Bodyweight, Mean 2 (treated group) ([2]; Row 5 (time)): 105.6 | Bodyweight, Mean Diff. (Vehicle vs. treated) ([2]; Row 5 (time)): -3.149 | Temperature, Mean 2 (treated group) ([2]; Row 1 (time)): 38.55 | Temperature, Mean Diff. (Vehicle vs. treated) ([2]; Row 1 (time)): 0.6 | Temperature, Mean 2 (treated group) ([2]; Row 2 (time)): 38.7 | Temperature, Mean Diff. (Vehicle vs. treated) ([2]; Row 2 (time)): -0.025 | Temperature, Mean 2 (treated group) ([2]; Row 3 (time)): 38.58 | Temperature, Mean Diff. (Vehicle vs. treated) ([2]; Row 3 (time)): 0.1 | Temperature, Mean 2 (treated group) ([2]; Row 4 (time)): 38.6 | Temperature, Mean Diff. (Vehicle vs. treated) ([2]; Row 4 (time)): 0.05 | Temperature, Mean 2 (treated group) ([2]; Row 5 (time)): 38.53 | Temperature, Mean Diff. (Vehicle vs. treated) ([2]; Row 5 (time)): 0.05 | Body temperature (Fig 3D) ([2]; in vivo): 39.3 and 38.7 and 38.2 and 38.6 and 38.9 and 38.4 and 37.8

CC(C)C(=O)OCC1OC(C#N)(c2ccc3c(N)ncnn23)C(OC(=O)C(C)C)C1OC(=O)C(C)C (stereo not shown) [GS-62-1763]
Transform of Nasal lavage RNA copies/uL, Mean 2 (treated group mean) (SARS-CoV-2 WA1/2020 [3]; Row 1 (time)): 0 | Transform of Nasal lavage RNA copies/uL, Mean Diff. (Vehicle - treated) (SARS-CoV-2 WA1/2020 [3]; Row 1 (time)): 0 | Transform of Nasal lavage RNA copies/uL, Mean 2 (treated group mean) (SARS-CoV-2 WA1/2020 [3]; Row 2 (time)): 3.525 | Transform of Nasal lavage RNA copies/uL, Mean Diff. (Vehicle - treated) (SARS-CoV-2 WA1/2020 [3]; Row 2 (time)): 1.479 | Transform of Nasal lavage RNA copies/uL, Mean 2 (treated group mean) (SARS-CoV-2 WA1/2020 [3]; Row 3 (time)): 3.436 | Transform of Nasal lavage RNA copies/uL, Mean Diff. (Vehicle - treated) (SARS-CoV-2 WA1/2020 [3]; Row 3 (time)): 2.713 | Transform of Nasal lavage RNA copies/uL, Mean 2 (treated group mean) (SARS-CoV-2 WA1/2020 [3]; Row 4 (time)): 3.353 | Transform of Nasal lavage RNA copies/uL, Mean Diff. (Vehicle - treated) (SARS-CoV-2 WA1/2020 [3]; Row 4 (time)): 2.648 | Transform of Nasal lavage RNA copies/uL, Mean 2 (treated group mean) (SARS-CoV-2 WA1/2020 [3]; Row 5 (time)): 3.502 | Transform of Nasal lavage RNA copies/uL, Mean Diff. (Vehicle - treated) (SARS-CoV-2 WA1/2020 [3]; Row 5 (time)): 2.475 | Bodyweight, Mean 2 (treated group mean) ([2]; Row 1 (time)): 100 | Bodyweight, Mean Diff. (Vehicle - treated) ([2]; Row 1 (time)): 0 | Bodyweight, Mean 2 (treated group mean) ([2]; Row 2 (time)): 102.1 | Bodyweight, Mean Diff. (Vehicle - treated) ([2]; Row 2 (time)): -0.8462 | Bodyweight, Mean 2 (treated group mean) ([2]; Row 3 (time)): 104.7 | Bodyweight, Mean Diff. (Vehicle - treated) ([2]; Row 3 (time)): -2.64 | Bodyweight, Mean 2 (treated group mean) ([2]; Row 4 (time)): 105.7 | Bodyweight, Mean Diff. (Vehicle - treated) ([2]; Row 4 (time)): -3.357 | Bodyweight, Mean 2 (treated group mean) ([2]; Row 5 (time)): 105.5 | Bodyweight, Mean Diff. (Vehicle - treated) ([2]; Row 5 (time)): -2.899 | Temperature, Mean 2 (treated group mean) ([2]; Row 1 (time)): 38.58 | Temperature, Mean Diff. (Vehicle - treated) ([2]; Row 1 (time)): -0.25 | Temperature, Mean 2 (treated group mean) ([2]; Row 2 (time)): 38.45 | Temperature, Mean Diff. (Vehicle - treated) ([2]; Row 2 (time)): 0.275 | Temperature, Mean 2 (treated group mean) ([2]; Row 3 (time)): 38.68 | Temperature, Mean Diff. (Vehicle - treated) ([2]; Row 3 (time)): 0.675 | Temperature, Mean 2 (treated group mean) ([2]; Row 4 (time)): 38.4 | Temperature, Mean Diff. (Vehicle - treated) ([2]; Row 4 (time)): 0.85 | Temperature, Mean 2 (treated group mean) ([2]; Row 5 (time)): 38.33 | Temperature, Mean Diff. (Vehicle - treated) ([2]; Row 5 (time)): 0.6

N#CC1(c2ccc3c(N)ncnn23)OC(CO)C(O)C1O (stereo not shown) [compound 441524]
Cl_obs ([4]; individual animals F0201-F0203): 12 mL/min/kg and 17.3 mL/min/kg | AUC(0-t) ([4]; Mean): 81.1 µM·h | AUC(0-t) ([4]; individual animals F0201-F0203): 82 µM·h | clearance ([4]; Mean): 14.4 mL/min/kg | clearance ([4]; individual animals F0201-F0203): 13.9 mL/min/kg | Cmax ([4]; Mean): 54.2 µM | Cmax ([4]; individual animals F0201-F0203): 62.4 µM
